From ChEMBL document CHEMBL5365440, “Design, synthesis, and structure-activity relationship of a bicyclic HBV capsid assembly modulator chemotype leading to the identification of clinical candidate AB-506” (Bioorg Med Chem Lett, 2023) come the findings set out here.

As usually defined, the AUC(0-inf) is the area under the concentration-time curve extrapolated to infinity. Read a low AUC(0-inf) as less exposure. Broadly, the IC50 is the point on the concentration scale where inhibition reaches its midpoint. High values mean weaker potency in that assay, low ones greater potency in that assay. Usually half-life stands for the time in which the quantity being followed falls by half. As a reminder, the Cmax is the highest concentration seen after dosing. The clearance is a measure of how efficiently the substance is removed, as volume per time. What is called EC50 is the concentration needed to bring the measured effect to its halfway point. As a reminder, the solubility is how much of the substance goes into solution per volume. Read a low solubility as a poorly soluble substance.

Data set [1] is described as follows: Microsomal stability in mouse liver microsomes assessed as intrinsic clearance. In kind it is ADME, Microsome. As to conditions: read-out: CLH. (In general: Liver microsomes are vesicles of endoplasmic reticulum, rich in cytochrome P450 enzymes.)
Data set [2] deals with Hepatitis B virus. Kind of data set: Antiviral activity against Hepatitis B virus Genotype D infected in NOD.CB17-PrkdcSCID/J mouse model assessed as log reduction in serum HBV DNA level at 30 mg/kg,po dosed for 7 consecutive days by qPCR analysis. It counts as functional. (In qPCR the cycle at which signal appears reflects the starting amount.)
A short description of data set [3]: AUC (0-infinity) in CD-1 mouse at 10 mg/kg,po. In kind it is ADME, organism-based. Further details: dose 10 mg/kg, route po. As to conditions: in vivo.
In the next data set the target is Cytochrome P450 3A4 (Homo sapiens, UniProt P08684). As to the kind of experiment: Inhibition of CYP3A4 (unknown origin). In kind it is ADME.
Another data set concerns the target Cytochrome P450 2D6 (Homo sapiens, UniProt P10635). Kind of data set: Inhibition of CYP2D6 (unknown origin). In kind it is ADME.
Data set [4] can be described thus: Half life in CD-1 mouse at 2 mg/kg,iv. In kind it is ADME, organism-based. As to conditions: in vivo.
The nature of data set [5]: Cmax in dog at 10 mg/kg,po. It counts as ADME, organism-based, Canis lupus familiaris. Further details: dose 10 mg/kg, route po. As to conditions: in vivo.
Data set [6] deals with Hepatitis B virus. As to the kind of experiment: Antiviral activity against Hepatitis B virus Genotype D infected in NOD.CB17-PrkdcSCID/J mouse model assessed as log reduction in serum HBV DNA level at 10 mg/kg,po dosed for 7 consecutive days by qPCR analysis. It counts as functional.
The test system of data set [7] is Hepatitis B virus. Kind of data set: Antiviral activity against Hepatitis B virus Genotype D infected in NOD.CB17-PrkdcSCID/J mouse model assessed as reduction in serum HBV DNA level at po dosed for 7 consecutive days. In kind it is functional, organism-based.
In a further data set the target is Cytochrome P450 2C9 (Homo sapiens, UniProt P11712). Kind of data set: Inhibition of CYP2C9 (unknown origin). In kind it is ADME.
Data set [8] in a line: in vivo. Conditions: dog, po, 10 mg/kg.
Description: AUC (0-infinity) in dog at 10 mg/kg,po
The next data set has as its target T1, Cytochrome P450 1A2 (Homo sapiens, UniProt P05177).
T1 sequence (P05177 whole entry): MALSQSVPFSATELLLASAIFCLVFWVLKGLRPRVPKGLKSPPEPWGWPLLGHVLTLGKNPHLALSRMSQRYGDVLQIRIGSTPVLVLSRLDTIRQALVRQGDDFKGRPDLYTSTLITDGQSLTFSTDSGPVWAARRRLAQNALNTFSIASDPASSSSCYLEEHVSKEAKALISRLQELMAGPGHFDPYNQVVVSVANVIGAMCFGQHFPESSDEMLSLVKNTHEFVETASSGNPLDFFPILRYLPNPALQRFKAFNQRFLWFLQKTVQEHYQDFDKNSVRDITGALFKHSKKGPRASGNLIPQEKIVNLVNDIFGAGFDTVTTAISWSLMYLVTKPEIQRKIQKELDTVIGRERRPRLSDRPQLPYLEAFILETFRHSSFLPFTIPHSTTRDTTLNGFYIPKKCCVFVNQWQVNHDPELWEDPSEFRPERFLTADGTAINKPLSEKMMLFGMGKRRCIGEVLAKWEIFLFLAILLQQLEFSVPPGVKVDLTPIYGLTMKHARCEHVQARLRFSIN
As to the kind of experiment: Inhibition of CYP1A2 (unknown origin). It counts as ADME.

Data set [9] in a line: Half life in dog at 2 mg/kg,iv. It counts as ADME, organism-based, Canis lupus familiaris. Conditions: in vivo.
The nature of data set [10]: Cmax in rat at 10 mg/kg,po. In kind it is ADME, organism-based. Further details: dose 10 mg/kg, route po. Conditions: in vivo.
For the next data set, the target named is Cytochrome P450 2C19 (Homo sapiens, UniProt P33261). As to the kind of experiment: Inhibition of CYP2C19 (unknown origin). In kind it is ADME.
A short description of data set [11]: Clearance in CD-1 mouse at 2 mg/kg,iv. Conditions: in vivo. In kind it is ADME, organism-based.
Data set [12] in a line: in vivo. Conditions: rat, po, 10 mg/kg.
Description: AUC (0-infinity) in rat at 10 mg/kg,po
For data set [13], the system named is Hepatitis B virus. Kind of data set: Antiviral activity against Hepatitis B virus Genotype D infected in NOD.CB17-PrkdcSCID/J mouse model assessed as log reduction in serum HBV DNA level at 100 mg/kg,po dosed for 7 consecutive days by qPCR analysis. It counts as functional.
Data set [14] has as its system Hepatitis B virus. Kind of data set: Antiviral activity against Hepatitis B virus infected in human HepDE19 cells assessed as reduction in viral replication incubated for 3 to 7 days by PCR analysis. It counts as functional, organism-based.
Data set [15] in a line: Clearance in rat at 2 mg/kg,iv. It counts as ADME, organism-based. Conditions: in vivo.
The nature of data set [16]: Aqueous solubility of the compound in PBS buffer at pH 7.4. In kind it is physicochemical.
Data set [17] can be described thus: Microsomal stability in human liver microsomes assessed as intrinsic clearance. In kind it is ADME, Microsome. As to conditions: read-out: CLH.
Data set [18] in a line: Half life in rat at 2 mg/kg,iv. In kind it is ADME, organism-based. Conditions: in vivo.
Data set [19] in a line: Clearance in dog at 2 mg/kg,iv. In kind it is ADME, organism-based, Canis lupus familiaris. Conditions: in vivo.

The structures appear in SMILES notation. Values after ≈ are worked out from the molar mass of the structure shown. A value given as a limit tells only on which side of the number the result lay.

Chain of Cytochrome P450 2C9 (P11712 whole entry): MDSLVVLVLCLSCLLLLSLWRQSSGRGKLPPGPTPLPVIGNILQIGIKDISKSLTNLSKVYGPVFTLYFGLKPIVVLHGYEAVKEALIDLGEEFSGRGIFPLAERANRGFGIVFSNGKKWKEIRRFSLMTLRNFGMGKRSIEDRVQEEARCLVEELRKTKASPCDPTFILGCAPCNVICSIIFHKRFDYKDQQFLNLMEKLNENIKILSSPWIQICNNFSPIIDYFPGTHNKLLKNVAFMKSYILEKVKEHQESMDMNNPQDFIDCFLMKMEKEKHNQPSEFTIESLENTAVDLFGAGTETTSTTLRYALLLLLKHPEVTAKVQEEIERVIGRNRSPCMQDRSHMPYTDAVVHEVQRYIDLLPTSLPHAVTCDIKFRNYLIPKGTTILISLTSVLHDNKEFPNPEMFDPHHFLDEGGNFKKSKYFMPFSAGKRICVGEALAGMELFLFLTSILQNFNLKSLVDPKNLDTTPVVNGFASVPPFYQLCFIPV
Chain of Cytochrome P450 3A4 (P08684 whole entry): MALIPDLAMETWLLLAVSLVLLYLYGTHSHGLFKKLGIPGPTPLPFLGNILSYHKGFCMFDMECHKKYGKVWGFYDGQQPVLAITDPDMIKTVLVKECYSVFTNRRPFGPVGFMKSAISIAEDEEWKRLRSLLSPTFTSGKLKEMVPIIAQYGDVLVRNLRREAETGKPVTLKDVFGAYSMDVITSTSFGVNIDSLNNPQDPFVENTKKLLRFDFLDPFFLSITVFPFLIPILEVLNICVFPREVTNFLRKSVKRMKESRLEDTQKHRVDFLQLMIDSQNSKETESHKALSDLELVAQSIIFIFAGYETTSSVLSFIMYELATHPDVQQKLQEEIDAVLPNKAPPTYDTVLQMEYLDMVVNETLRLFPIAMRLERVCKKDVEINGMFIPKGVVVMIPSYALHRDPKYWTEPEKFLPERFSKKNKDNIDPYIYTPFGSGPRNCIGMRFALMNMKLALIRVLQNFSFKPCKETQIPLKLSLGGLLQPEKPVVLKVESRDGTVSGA
Chain of Cytochrome P450 2D6 (P10635 whole entry): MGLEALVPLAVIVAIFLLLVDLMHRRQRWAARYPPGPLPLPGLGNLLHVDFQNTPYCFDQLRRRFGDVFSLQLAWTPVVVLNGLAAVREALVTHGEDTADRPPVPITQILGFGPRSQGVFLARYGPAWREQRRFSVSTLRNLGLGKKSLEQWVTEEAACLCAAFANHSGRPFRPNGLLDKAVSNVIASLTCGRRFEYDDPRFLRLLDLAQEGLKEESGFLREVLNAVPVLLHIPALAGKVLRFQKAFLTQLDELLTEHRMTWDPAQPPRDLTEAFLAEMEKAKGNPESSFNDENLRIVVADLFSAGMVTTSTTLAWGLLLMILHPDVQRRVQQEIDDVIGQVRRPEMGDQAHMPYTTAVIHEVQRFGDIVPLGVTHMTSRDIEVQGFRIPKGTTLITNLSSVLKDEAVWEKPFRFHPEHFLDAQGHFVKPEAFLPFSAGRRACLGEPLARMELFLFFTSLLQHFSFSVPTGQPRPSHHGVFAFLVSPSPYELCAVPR
Chain of Cytochrome P450 2C19 (P33261 whole entry): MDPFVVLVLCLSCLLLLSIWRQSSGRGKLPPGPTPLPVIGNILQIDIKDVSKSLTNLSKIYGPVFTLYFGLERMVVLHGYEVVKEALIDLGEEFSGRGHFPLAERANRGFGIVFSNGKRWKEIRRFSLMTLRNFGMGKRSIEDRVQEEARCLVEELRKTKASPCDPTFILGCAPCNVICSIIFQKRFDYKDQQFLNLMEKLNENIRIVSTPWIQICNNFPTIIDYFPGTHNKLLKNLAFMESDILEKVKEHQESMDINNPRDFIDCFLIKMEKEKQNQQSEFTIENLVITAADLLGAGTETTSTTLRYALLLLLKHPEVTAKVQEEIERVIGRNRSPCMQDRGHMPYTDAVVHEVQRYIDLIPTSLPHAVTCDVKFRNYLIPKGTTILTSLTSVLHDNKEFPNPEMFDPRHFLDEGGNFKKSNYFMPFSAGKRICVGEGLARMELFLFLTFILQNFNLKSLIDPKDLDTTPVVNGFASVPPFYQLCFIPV

Consider `Cn1cnc(COC(=O)N[C@H]2CCc3c(C(=O)Nc4ccc(F)c(Cl)c4)ccc(F)c32)n1`, for which the microsomal CLint in data set [1] was 21 µL/min/mg; in [17], 6.2 µL/min/mg. Moreover, the Activity with Hepatitis B virus [2] was 2.4 log10CFU; in the data set with Hepatitis B virus [6], 1 log10CFU; with Hepatitis B virus [7], “Dose-Dependent Effect”; in the data set on Hepatitis B virus [13] it was 2.9 log10CFU. The values for the AUC(0-inf) (in [3]; in “in vivo [8]”; in the data set “in vivo [12]”) were 9870 ng·h/mL, 134 µg·h/mL and 39600 ng·h/mL, respectively. Also, the IC50 on Cytochrome P450 3A4, at Cytochrome P450 2D6, against Cytochrome P450 2C9, at Cytochrome P450 1A2 and on Cytochrome P450 2C19 was over 20 µM each time. In addition, the half-life was 150 min in data set [4], 684 min in data set [9] and 192 min in [18]. Further, the Cmax in data set [5] was found to be 6820 ng/mL; in data set [10], 2850 ng/mL. The clearance in data set [11] amounted to 18 mL/min/kg; in data set [15], 4.6 mL/min/kg; in data set [19], 1.25 mL/min/kg. Further, the EC50 in the data set on Hepatitis B virus [14] stood at 77 nM. This molecule also had a solubility in data set [16] of 14.8 µM (≈ 6.84 µg/mL).
